Test results reported in ChEMBL document CHEMBL1132943, “Synthesis of B-ring homologated estradiol analogues that modulate tubulin polymerization and microtubule stability” (J Med Chem, 2000).
pEC50, pIC50: −log10 of the molar value.

Columns and labels:
Cell line = assay: Tested for cytotoxicities and mean graph midpoint (MGM) for growth inhibition of all 55 human cell lines; assay type: functional
Tubulin [1] = target: T1, Tubulin (Bos taurus, UniProt Q6B856+Q862F3); assay: Inhibition of polymerization of purified bovine tubulin; assay type: functional
T1 sequence (Q6B856 whole entry): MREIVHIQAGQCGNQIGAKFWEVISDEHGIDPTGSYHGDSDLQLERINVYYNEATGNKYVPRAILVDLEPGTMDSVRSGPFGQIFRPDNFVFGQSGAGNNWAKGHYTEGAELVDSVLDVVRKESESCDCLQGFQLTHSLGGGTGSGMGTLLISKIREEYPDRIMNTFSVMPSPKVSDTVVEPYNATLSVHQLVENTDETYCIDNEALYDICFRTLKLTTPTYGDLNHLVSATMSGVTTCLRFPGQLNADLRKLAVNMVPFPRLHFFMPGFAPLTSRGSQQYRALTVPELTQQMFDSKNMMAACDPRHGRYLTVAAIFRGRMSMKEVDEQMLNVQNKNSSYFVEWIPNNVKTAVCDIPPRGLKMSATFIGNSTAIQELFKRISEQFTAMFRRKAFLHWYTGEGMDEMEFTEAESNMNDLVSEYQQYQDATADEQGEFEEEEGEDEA
T1 sequence (Q862F3 whole entry): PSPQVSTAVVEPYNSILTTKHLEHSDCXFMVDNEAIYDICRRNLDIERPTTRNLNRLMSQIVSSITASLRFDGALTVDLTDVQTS

Tubulin (Bos taurus) [2] = target: T2, Tubulin (Bos taurus) (UniProt Q6B856+Q862L2+Q862F3); assay: Compound was evaluated for inhibition of colchicine binding to tubulin in experiment I.; assay type: protein assay; details: concentration not given here
Tubulin (Bos taurus) [3] = target: T2, Tubulin (Bos taurus); assay: Compound was evaluated for inhibition of colchicine binding to tubulin in experiment II.; assay type: protein assay; details: concentration not given here
Tubulin [4] = target: T1, Tubulin; assay: Effective concentration for enhancement of tubulin assembly rate was determined; assay type: functional

SMILES	MGM (Cell line) [µM]	pIC50 (Tubulin [1])	inhibition (Tubulin (Bos taurus) [2]) [%]	inhibition (Tubulin (Bos taurus) [3]) [%]	pEC50 (Tubulin [4])
CCOc1cc2c(cc1OC(C)=O)C(=O)CCC1C2CC[C@@]2(C)C1CC[C@@H]2OC(C)=O (some centres undefined)	>100	5.26	–	–	–
CCOc1cc2c(cc1O)[C@@H](NC(C)=O)CCC1C2CC[C@@]2(C)C1CC[C@@H]2O (some centres undefined)	7	5.16	–	–	–
CCOc1cc2c(cc1O)CC[C@@H]1[C@@H]2CC[C@]2(C)[C@@H](O)CC[C@@H]12	0.076	6.18	51	87	–
CCOc1cc2c(cc1O)[C@H](NC(C)=O)CC[C@H]1C3CC[C@H](O)[C@@]3(C)CC[C@H]21 (some centres undefined)	90.4	–	–	–	< 3.70
CCOc1cc2c(cc1O)/C(=N/OC)CCC1C2CC[C@@]2(C)C1CC[C@@H]2O (some centres undefined)	24	4.52	–	–	–
CCOc1cc2c(cc1O)/C(=N/O)CCC1C2CC[C@@]2(C)C1CC[C@@H]2O (some centres undefined)	51.3	4.24	–	–	–
CCOc1cc2c(cc1OC(C)=O)C(=O)C[C@@H]1[C@@H]2CC[C@]2(C)[C@@H](OC(C)=O)CC[C@@H]12	–	–	–	–	< 3.40
CCOc1cc2c(cc1OC(C)=O)C(=O)CCC1C2CC[C@@]2(C)C1CC[C@@H]2O (some centres undefined)	–	–	–	–	3.44
CCOc1cc2c(cc1O)C(=O)C[C@@H]1[C@@H]2CC[C@]2(C)[C@@H](O)CC[C@@H]12	0.13	5.52	19	–	–
CCOc1cc2c(cc1OC(C)=O)CCCC1C2CC[C@@]2(C)C1CC[C@@H]2OC(C)=O (some centres undefined)	14.5	< 3.40	–	–	–
CCOc1cc2c(cc1O)C/C(=N\NS(=O)(=O)c1ccc(C)cc1)CC1C2CC[C@@]2(C)C1CC[C@@H]2O (some centres undefined)	15.5	4.10	–	–	–
CCOc1cc2c(cc1O)CCCC1C2CC[C@@]2(C)C1CC[C@@H]2O (some centres undefined)	2.48	6.01	56	–	–
CCOc1cc2c(cc1O)C(=O)CCC1C2CC[C@@]2(C)C1CC[C@@H]2O (some centres undefined)	14.4	3.89	–	–	–
COc1cc2c(cc1O)CC[C@@H]1[C@@H]2CC[C@]2(C)[C@@H](O)CC[C@@H]12 [2-METHOXYESTRADIOL]	1.3	5.85	19	60	–
CCOc1cc2c(cc1O)C=CCC1C2CC[C@@]2(C)C1CC[C@@H]2O (some centres undefined)	1.32	6.07	–	–	–
CCOc1cc2c(cc1OC(C)=O)/C(=N/OC)CCC1C2CC[C@@]2(C)C1CC[C@@H]2OC(C)=O (some centres undefined)	–	–	–	–	< 3.70
CCOc1cc2c(cc1O)C(=O)CCC1C2CC[C@@]2(C)C1CC[C@@H]2OC(C)=O (some centres undefined)	–	–	–	–	5.09
CCOc1cc2c(cc1O)C/C(=N\O)CC1C2CC[C@@]2(C)C1CC[C@@H]2O (some centres undefined)	42.7	4.00	–	–	–
CC(=O)O[C@H]1C(=O)[C@@]2(C)[C@H]([C@H](OC(=O)c3ccccc3)[C@]3(O)C[C@H](OC(=O)[C@H](O)[C@@H](NC(=O)c4ccccc4)c4ccccc4)C(C)=C1C3(C)C)[C@]1(OC(C)=O)CO[C@@H]1C[C@@H]2O [PACLITAXEL]	–	–	–	–	6.08
CCOc1cc2c(cc1O)/C(=N\OC)C[C@@H]1[C@@H]2CC[C@]2(C)[C@@H](O)CC[C@@H]12	0.27	–	–	–	–
CCOc1cc2c(cc1O)/C(=N\O)C[C@@H]1[C@@H]2CC[C@]2(C)[C@@H](O)CC[C@@H]12	0.079	–	–	–	–
CCOc1cc2c(cc1O)CC(=O)CC1C2CC[C@@]2(C)C1CC[C@@H]2O (some centres undefined)	11.5	5.09	–	–	–
CCOc1cc2c(cc1OC(C)=O)CC(=O)CC1C2CC[C@@]2(C)C1CC[C@@H]2OC(C)=O (some centres undefined)	–	–	–	–	< 3.40
